Measurements from ChEMBL document CHEMBL1201862, “PubChem BioAssay data set” (2004).
The source made the active and inactive calls.

What was measured:
[1] = inhibitors of intracellular T. cruzi replication, confirmation, NIH3T3 host cells, beta-gal luminescence (AID 2044); format: functional, cell-based;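 further: intracellular parasites grown in NIH/3T3 mouse fibroblasts as host cells; luminescent beta-galactosidase reporter signal from transgenic T. cruzi replicating inside host cells; inhibitors lower the luminescence signal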
[2] = cytotoxicity toward NIH3T3 fibroblasts, dose response, counter-screen, cell-based, ATP luminescence, mouse fibroblasts (AID 2010); format: functional;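 further: cells exposed to compound for about 90 hours before reading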
cells [3] = format: functional
cells [4] = assay: cells
[5] = target: Bifunctional protein GlmU (Mycobacterium tuberculosis, UniProt P9WMN3); assay: Inhibitors of Mycobacterial Glucosamine-1-phosphate acetyl transferase (GlmU). Secondary screen.; parameters: species or system Mycobacterium tuberculosis H37Rv
Bifunctional protein GlmU, sequence (P9WMN3 whole entry): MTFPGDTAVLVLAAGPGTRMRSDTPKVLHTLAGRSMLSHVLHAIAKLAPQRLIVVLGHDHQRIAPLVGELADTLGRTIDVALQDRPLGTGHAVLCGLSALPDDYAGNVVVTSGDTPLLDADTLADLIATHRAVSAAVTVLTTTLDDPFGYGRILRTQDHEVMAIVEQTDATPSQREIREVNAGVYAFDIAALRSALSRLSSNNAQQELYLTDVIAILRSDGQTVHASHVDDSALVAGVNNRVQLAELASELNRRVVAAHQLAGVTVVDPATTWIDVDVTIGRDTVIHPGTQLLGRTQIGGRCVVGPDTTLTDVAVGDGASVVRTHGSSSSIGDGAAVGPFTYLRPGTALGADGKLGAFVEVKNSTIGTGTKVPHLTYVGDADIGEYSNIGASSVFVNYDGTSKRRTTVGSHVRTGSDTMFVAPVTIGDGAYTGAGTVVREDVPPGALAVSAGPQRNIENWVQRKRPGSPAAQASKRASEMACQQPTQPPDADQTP

[6] = target: T1, Replicative DNA helicase DnaB (Mycobacterium tuberculosis, UniProt P9WMR3); assay: DnaB intein splicing inhibitors, dose response, biochemical, cell-free fluorescence (AID 449749); format: functional
T1 sequence (P9WMR3 whole entry): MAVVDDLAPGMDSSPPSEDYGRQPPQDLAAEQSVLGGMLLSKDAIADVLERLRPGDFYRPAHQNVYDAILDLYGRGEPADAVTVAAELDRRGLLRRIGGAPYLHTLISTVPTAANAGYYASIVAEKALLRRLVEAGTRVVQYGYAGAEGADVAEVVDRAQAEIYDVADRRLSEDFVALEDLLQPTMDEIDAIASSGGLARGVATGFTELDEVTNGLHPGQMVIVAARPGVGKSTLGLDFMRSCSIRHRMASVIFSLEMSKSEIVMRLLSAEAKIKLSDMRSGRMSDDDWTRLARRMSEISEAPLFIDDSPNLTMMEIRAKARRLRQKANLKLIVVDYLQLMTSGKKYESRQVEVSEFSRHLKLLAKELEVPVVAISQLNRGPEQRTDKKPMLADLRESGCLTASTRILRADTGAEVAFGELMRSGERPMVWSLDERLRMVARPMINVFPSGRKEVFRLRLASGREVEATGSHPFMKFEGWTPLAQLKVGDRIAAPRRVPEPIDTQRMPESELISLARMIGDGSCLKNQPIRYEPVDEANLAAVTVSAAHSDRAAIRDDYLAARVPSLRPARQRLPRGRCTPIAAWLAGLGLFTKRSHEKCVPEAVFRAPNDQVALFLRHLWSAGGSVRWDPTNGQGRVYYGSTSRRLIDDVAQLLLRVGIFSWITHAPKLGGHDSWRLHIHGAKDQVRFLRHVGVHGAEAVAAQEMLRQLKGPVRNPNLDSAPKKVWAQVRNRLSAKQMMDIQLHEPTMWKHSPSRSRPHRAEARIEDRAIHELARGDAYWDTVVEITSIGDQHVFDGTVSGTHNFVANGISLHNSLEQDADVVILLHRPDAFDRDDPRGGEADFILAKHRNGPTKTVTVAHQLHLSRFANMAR

Protein RecA = target: T2, Protein RecA (Mycobacterium tuberculosis, UniProt P9WHJ3); assay: Fluorescence Cell-Free Homogeneous Dose Retest to Identify Inhibitors of RecA-Intein Splicing Activity. [Related pubchem assays (depositor defined):AID2097, AID2223, AID489010, AID492950]; format: functional
T2 sequence (P9WHJ3 whole entry): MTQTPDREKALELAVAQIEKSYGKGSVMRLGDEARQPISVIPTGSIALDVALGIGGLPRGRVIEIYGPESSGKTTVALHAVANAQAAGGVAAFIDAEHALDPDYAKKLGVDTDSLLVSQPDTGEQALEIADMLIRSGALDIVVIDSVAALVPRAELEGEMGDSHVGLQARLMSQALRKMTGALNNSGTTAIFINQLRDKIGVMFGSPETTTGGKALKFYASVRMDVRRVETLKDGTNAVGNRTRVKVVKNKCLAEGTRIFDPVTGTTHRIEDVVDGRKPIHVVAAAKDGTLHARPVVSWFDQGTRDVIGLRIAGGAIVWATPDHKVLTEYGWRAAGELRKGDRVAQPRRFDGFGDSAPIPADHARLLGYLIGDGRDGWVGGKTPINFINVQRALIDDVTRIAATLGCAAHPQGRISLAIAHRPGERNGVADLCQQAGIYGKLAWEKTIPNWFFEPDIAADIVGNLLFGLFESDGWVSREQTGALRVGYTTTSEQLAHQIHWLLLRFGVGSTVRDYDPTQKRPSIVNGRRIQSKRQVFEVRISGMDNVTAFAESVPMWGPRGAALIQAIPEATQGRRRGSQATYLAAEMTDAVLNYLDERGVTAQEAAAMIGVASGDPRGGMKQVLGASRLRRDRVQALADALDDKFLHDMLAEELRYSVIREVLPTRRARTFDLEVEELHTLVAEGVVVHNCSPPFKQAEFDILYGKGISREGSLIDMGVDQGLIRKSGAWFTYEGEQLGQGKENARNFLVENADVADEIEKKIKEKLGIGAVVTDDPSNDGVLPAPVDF

Genome polyprotein = Genome polyprotein (dengue virus type 2, UniProt P29990); assay: Dengue-2 NS5 methyltransferase inhibitors, primary screen, biochemical, confirmation dose response (AID 588689); format: functional
Genome polyprotein, sequence (P29990 2492-3391 limits assumed): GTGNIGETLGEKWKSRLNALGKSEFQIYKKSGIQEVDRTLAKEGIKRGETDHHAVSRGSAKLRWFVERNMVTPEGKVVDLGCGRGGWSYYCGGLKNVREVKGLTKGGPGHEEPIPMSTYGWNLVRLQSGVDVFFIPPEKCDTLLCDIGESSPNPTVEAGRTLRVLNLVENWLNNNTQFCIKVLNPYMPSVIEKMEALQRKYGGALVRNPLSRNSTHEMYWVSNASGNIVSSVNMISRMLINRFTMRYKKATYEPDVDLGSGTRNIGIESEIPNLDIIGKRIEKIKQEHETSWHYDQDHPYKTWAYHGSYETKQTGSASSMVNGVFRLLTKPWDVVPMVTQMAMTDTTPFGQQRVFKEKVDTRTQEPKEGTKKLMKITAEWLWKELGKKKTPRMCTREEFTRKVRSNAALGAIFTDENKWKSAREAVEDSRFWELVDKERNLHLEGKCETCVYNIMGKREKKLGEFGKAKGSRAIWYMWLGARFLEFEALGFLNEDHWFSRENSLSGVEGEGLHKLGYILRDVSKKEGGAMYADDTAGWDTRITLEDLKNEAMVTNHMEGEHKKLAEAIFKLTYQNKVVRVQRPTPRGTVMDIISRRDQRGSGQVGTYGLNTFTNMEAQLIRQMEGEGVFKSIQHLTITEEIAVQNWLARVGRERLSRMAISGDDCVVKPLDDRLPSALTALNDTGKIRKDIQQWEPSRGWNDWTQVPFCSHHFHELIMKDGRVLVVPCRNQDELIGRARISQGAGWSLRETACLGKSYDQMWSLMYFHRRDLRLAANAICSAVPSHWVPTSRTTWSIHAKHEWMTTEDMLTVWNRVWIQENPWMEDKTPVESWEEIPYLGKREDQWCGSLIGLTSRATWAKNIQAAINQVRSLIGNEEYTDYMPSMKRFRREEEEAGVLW

[7] = target: T3, Mannose-6-phosphate isomerase (Homo sapiens, UniProt P34949); assay: inhibitors of human PMI, primary screen, biochemical, fluorescence intensity, coupled assay (AID 1209)
T3 sequence (P34949 whole entry): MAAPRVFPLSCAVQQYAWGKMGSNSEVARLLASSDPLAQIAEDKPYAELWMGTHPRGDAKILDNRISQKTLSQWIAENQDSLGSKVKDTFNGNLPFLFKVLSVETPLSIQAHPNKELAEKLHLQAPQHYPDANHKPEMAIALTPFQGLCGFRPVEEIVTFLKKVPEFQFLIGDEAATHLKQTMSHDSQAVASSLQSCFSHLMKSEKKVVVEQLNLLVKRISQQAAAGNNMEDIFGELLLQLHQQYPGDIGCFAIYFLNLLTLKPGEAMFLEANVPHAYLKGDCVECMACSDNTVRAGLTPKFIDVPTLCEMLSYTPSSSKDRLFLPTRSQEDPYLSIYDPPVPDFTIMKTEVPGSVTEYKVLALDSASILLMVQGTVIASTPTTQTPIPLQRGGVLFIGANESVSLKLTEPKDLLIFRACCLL

[8] = target: T3, Mannose-6-phosphate isomerase; assay: human PMI inhibitors, high substrate, primary screen, biochemical, fluorescence intensity, high mannose 6-phosphate (AID 1220)
Bcl-2-related protein A1 [9] = target: T4, Bcl-2-related protein A1 (Mus musculus, UniProt Q07440); assay: Bfl-1 inhibitors, primary screen, biochemical, fluorescence polarization, FITC-Bid, mouse (AID 432)
T4 sequence (Q07440 whole entry): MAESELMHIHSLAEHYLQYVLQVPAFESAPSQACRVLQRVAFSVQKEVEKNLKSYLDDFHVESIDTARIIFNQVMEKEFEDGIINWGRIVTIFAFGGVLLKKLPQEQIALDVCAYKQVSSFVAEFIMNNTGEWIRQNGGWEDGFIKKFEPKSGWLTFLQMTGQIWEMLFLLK

[10] = target: Glyceraldehyde-3-phosphate dehydrogenase (Homo sapiens, UniProt P04406)
Glyceraldehyde-3-phosphate dehydrogenase, sequence (P04406 whole entry): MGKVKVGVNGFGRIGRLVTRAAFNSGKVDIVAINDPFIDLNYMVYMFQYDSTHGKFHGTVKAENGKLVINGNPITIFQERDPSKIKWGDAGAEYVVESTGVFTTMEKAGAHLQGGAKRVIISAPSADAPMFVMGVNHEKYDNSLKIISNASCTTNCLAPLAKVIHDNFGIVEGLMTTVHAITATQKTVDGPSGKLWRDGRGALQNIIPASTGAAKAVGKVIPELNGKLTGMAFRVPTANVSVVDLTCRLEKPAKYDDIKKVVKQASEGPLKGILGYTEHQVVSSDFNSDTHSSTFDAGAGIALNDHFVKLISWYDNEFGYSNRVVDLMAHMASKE

[11] = cytotoxicity in HPDE-C7 cells, cell-based, fluorescence, HTS (AID 430); format: functional; conditions: Homo sapiens
Bcl-2-related protein A1 [12] = target: T4, Bcl-2-related protein A1; assay: Bfl-1 inhibitors blocking BH3 peptide binding, confirmation, biochemical, TR-FRET, mouse Bfl-1 (AID 621);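 further: TR-FRET binding of GST-Bfl-1 to FITC-labelled Bid peptide via terbium antibody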
[13] = cytotoxicity in KRAS-transformed pancreatic duct cells, primary screen, cell-based, fluorescence, HTS (AID 431); format: functional; conditions: Homo sapiens;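 further: cell line used: HPDE-C7K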
Bcl-2-related protein A1 [14] = target: T4, Bcl-2-related protein A1; assay: Bfl-1 binding inhibitors, SAR follow-up, biochemical, fluorescence polarization (AID 1070)
[15] = target: T5, Rac GTPase-activating protein 1 (Homo sapiens, UniProt Q9H0H5); assay: MgcRacGAP GTPase-activating activity inhibitors, confirmation, biochemical, ADP Hunter fluorescence, primary and confirmatory (AID 624330); format: functional
T5 sequence (Q9H0H5 whole entry): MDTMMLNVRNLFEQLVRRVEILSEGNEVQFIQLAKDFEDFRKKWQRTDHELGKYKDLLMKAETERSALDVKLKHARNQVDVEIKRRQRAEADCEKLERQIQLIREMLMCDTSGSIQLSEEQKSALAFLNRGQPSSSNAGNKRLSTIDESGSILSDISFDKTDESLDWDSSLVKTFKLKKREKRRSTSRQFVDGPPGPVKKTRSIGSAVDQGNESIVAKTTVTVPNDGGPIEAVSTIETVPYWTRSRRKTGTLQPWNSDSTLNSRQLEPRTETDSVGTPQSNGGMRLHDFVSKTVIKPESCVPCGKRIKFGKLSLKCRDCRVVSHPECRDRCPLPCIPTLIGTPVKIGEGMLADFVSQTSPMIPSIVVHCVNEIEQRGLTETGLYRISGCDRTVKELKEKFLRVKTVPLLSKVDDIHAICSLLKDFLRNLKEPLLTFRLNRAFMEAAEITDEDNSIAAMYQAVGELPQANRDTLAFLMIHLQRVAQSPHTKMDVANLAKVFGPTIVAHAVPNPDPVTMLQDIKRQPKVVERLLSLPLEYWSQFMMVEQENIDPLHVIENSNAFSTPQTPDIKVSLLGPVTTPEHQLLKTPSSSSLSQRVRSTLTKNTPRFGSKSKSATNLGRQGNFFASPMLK

With COc1cccc(OCCNC(=O)c2cc([N+](=O)[O-])cc([N+](=O)[O-])c2)c1 the EC50 [1] was < 0.1 µM (active), the EC50 [2] was > 60 µM (not active) and the IC50 (cells [3]) was 0.36 µM (active). The EC50 (cells [4]) was 0.086 µM (active).
In the case of O=C(O)c1cccc(Nc2cc(Cl)c3nonc3c2[N+](=O)[O-])c1, the IC50 [5] is reported as 131 µM (active), the AC50 [6] is reported as 2.05 µM (active) and the EC50 (Protein RecA) is reported as 2.52 µM (active). For the same molecule, the IC50 (Genome polyprotein) was 10.7 µM (active).
In the case of Cc1ccc(-n2c(N)c(C(N)=O)sc2=S)c(C)c1, the IC50 [7] is reported as > 50 µM (not active) and the IC50 [8] is reported as > 50 µM (not active).
With COc1ccc2c3c(cccc13)NN=C2C the IC50 (Bcl-2-related protein A1 [9]) was 5.44 µM (active), the IC50 [10] was > 100 µM (not active) and the EC50 [11] was 13 µM (active). The IC50 (Bcl-2-related protein A1 [12]) was > 100 µM (not active), the EC50 [13] was 9.74 µM (active) and the IC50 (Bcl-2-related protein A1 [14]) was > 100 µM (not active).
With CC(=O)Oc1ccc2c(=O)c(Oc3ccccc3)coc2c1OC(C)=O the IC50 [7] was > 50 µM (not active) and the IC50 [15] was 108 µM (active).
